Reference: patent US12486218B2, “Compounds advantageous in the treatment of central nervous system diseases and disorders” (AurimMed Pharma, Inc., priority 2008, dated 2025)

Legend:
mice = assay: Corneal kindled mouse model; type: in vivo; details: mice i.p.; 50 mg/kg @ 1.0 hr
sodium channels = assay: Electrophysiology, sodium currents; type: cell-based; details: at 100 μM, ±S.E.M., 8 cells
From the text: The mechanisms of action of many currently marketed anticonvulsant drugs are not fully understood. Although numerous molecular targets exist wherein anticonvulsants may exert an effect, the final common pathway appears to be through modulation of voltage-gated and/or neurotransmitter-gated ion channels. Thus, the common link among the various proposed mechanisms involves the ability of an anticonvulsant to modulate ion channel function. Presently, a number of prototype anticonvulsants are thought to exert their action (at least in part) by reducing sustained, high-frequency repetitive firing of action potentials by modulating voltage-dependent sodium (Na+) channels. The effect of promising candidate substances on voltage-gated Na+ channels can be assessed using state-of-the-art electrophysiological techniques.
The effects of compound H (at a concentration of 100 μM) on sodium currents were evaluated in electrophysiological studies at holding potentials of −60 and −90 mV (using 8 cells). […] By way of comparison, the % of control inhibited for typical sodium-channel-blocking drugs such as phenytoin or lamotrigine is about 50%. […]

rats = assay: Lamotrigine-resistant amygdala-kindled rat model (LRM); type: in vivo
From the text: Resistance to Lamotrigine can be induced in rats by treating them with the drug during the kindling acquisition phase (i.e., during kindling development in the epileptogenesis phase). Subsequently, the fully kindled Lamotrigine-refractory rats (i.e., now fully manifesting seizures) are also resistant (cross-tolerant) to carbamazepine, phenytoin, and topiramate, but not to valproate (or diazepam or the clinical Phase III drug candidate, retigabine).
The Lamotrigine-resistant amygdala-kindled rat model (LRM) may thus serve as an early model of drug-resistant (i.e., pharmacoresistant, refractory) epilepsy to identify novel AEDs for further evaluation in more extensive model systems, including the phenytoin-resistant kindled rat
The LRM thus serves to identify novel broad-spectrum AEDs which may be effective in the treatment of drug-resistant epilepsies. Up to 35% of epilepsy patients continue to suffer from uncontrolled seizures because of their drug-resistant epilepsies.

CYP-450 3A4 = CYP-450 3A4 (Homo sapiens, UniProt P08684); assay: In vitro human CYP-450 study, 3A4; type: in vitro ADME; details: human enzyme
From the text: (§1) On the other hand, it is an inhibitor for 2C19, 2D6, 2A6 and 2C9.

CYP-450 2C19 = CYP-450 2C19 (Homo sapiens, UniProt P33261); assay: In vitro human CYP-450 study, 2C19; type: in vitro ADME; details: human enzyme
From the text: as §1

CYP-450 2A6 = CYP-450 2A6 (Homo sapiens, UniProt P11509); assay: In vitro human CYP-450 study, 2A6; type: in vitro ADME; details: human enzyme
From the text: as §1

[1] = test system: identified target proteins; assay: Protein profiling using Mass spectrometry after compound BX treatment; details: protein amount, preliminary
From the text: The data presented below in Tables 10-12 illustrate various studies aimed at identifying the targets that compound BX acts upon. Table 10 illustrates preliminary protein profiling data using Mass spectrometry to identify up/down-regulation by compound BX treatment among numerous identified target proteins. In the results shown in Table 10, superoxide dismutase (SOD) protein amount is increased almost two-fold. This is a significant increase in SOD. SOD protein, which is an enzyme that alternately catalyzes the dismutation (or partitioning) of the superoxide (O2^−) radical into either ordinary molecular oxygen (O2) or hydrogen peroxide (H2O2), is strongly associated with amyotrophic lateral sclerosis (ALS). Mutations in the first SOD enzyme (SOD1) can cause familial ALS. Onset of ALS is strongly associated with oxidative stress in the neural tissue of affected individuals.

SMN2 promoter = SMN2 promoter β-lactamase reporter assay in NSC34 motor neuron-like cells; type: cell-based
Protocol: FIG. 30 illustrates a screen for SMN2 expression of a number of compounds described herein.
SMN2 promoter activity was measured using NSC34 motor neuron-like cells stably transfected with a β-lactamase (BLA) reporter gene under the control of a 3.4-kilobase fragment of the SMN2 promoter. D156844 was used as a positive control for this assay.

CYP-450 3A4, sequence (P08684 whole entry): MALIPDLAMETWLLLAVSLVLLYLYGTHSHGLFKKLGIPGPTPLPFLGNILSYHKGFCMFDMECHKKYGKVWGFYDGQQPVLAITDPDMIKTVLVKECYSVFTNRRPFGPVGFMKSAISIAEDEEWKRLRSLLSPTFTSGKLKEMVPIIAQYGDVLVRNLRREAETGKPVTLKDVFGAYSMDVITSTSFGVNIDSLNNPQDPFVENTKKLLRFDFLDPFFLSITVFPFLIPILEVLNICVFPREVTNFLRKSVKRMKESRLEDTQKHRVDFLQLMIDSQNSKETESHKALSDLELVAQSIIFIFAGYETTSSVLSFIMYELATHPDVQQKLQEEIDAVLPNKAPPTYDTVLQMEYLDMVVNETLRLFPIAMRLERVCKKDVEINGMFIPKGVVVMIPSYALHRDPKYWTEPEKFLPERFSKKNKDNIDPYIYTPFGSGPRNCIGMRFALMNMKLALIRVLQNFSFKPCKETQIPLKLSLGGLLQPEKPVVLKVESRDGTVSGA
CYP-450 2A6, sequence (P11509 whole entry): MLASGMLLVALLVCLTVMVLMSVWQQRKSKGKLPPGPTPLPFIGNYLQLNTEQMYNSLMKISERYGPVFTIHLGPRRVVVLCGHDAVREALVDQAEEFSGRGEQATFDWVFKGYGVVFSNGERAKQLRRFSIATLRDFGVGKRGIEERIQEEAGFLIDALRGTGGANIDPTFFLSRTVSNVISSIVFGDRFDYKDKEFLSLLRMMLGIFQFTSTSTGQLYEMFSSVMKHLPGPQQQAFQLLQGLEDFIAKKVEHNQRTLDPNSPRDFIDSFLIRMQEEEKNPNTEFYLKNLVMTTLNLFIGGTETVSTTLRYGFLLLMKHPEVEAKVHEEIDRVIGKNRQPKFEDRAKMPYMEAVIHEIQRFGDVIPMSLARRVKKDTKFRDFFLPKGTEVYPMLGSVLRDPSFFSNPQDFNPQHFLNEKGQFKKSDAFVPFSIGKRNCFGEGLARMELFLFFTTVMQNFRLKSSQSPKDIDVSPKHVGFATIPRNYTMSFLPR
CYP-450 2C19, sequence (P33261 whole entry): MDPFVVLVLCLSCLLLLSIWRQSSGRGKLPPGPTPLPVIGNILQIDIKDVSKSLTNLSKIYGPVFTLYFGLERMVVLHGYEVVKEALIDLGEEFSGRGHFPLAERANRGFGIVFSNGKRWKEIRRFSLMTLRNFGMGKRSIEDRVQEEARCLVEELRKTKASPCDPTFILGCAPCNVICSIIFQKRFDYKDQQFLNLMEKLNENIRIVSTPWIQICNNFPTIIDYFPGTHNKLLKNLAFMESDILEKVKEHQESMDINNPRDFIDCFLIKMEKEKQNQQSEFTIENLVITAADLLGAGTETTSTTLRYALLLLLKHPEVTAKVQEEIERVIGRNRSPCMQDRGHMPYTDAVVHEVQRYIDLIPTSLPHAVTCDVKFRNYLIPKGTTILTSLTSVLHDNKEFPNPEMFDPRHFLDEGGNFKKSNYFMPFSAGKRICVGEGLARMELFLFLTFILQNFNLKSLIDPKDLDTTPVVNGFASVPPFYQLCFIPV

CC(CC(N)=O)c1ccc(OC(F)(F)F)cc1 (racemic) [Compound H, 3-[4-(trifluoromethoxy)-phenyl]butyramide]
Corneal Kindled, Average seizure score (mice): 2: (0, 4,
Corneal Kindled, fraction of animals (mice): 2/4 @
sodium currents (sodium channels; holding potential −60 mV): 91±1 % of control
sodium currents (sodium channels; holding potential −90 mV): 98±1 % of control
activity in the LRM (rats): active
inhibition of CYP-450 3A4 (CYP-450 3A4): either no or only a remote possibility of inhibiting
inhibition of CYP-450 2C19 (CYP-450 2C19): inhibitor
inhibition of CYP-450 2A6 (CYP-450 2A6): inhibitor

C[C@H](CC(N)=O)c1ccc(OC(F)(F)F)cc1 (single isomer, unassigned) [Compound BX, R-(−)-3-(4-Trifluoromethoxy-phenyl)butyramide]
Compound Ratio, 14-3-3 Protein Gamma (P61983) [1]: 1.15
Compound Ratio, Elongation factor 1-alpha 1 (P62630) [1]: 0.59
Compound Ratio, Eukaryotic translation initiation factor 5A-1 (Q3T1J1) [1]: 1.64
Compound Ratio, Glycine tRNA ligase (G3V7G8) [1]: 0.67
Compound Ratio, Heat Shock Protein HSP 90-alpha (P82995) [1]: 0.77
Compound Ratio, Heat shock 70 kDA protein (F1LRV4) [1]: 0.73
Compound Ratio, Hypoxia up-regulated protein (Q63617) [1]: 0.58
Compound Ratio, Malate Dehydrogenase (P04636) [1]: 0.68
Compound Ratio, Proteasome subunit alpha type-2 (P17220) [1]: 0.35
Compound Ratio, Superoxide dismutase [CU—Zn] (P07632) [1]: 1.72
SMN2 promoter assay, particularly strong hits (SMN2 promoter; NSC34 BLA reporter cells): Particularly strong hits
Promoter (SMN2 promoter test, summary YES/NO) (SMN2 promoter; Table 13 summary): YES
SMN2 promoter activity (SMN2 promoter; treatment for 19 hours at a concentration of 1 μM): increased SMN2 promoter activity
